Source: patent publication US20080287493A1, “ARYLMETHYLEN SUBSTITUTED N-ACYL-Y-AMINOALCOHOLS” (priority 2007, published 2008)

Assays:
human FSH receptor [1] = target: T1, human FSH receptor (Homo sapiens, UniProt P23945); experiment: HTRF assay for measuring cAMP in cells, test for agonism (in the absence of hFSH); type: cell-based; settings: hFSHR clone 16 cells (CHO cells stably transfected with the human FSH receptor), 37° C. for 2 h, read-out: EC50 (FSH agonistic effect in the HTRF assay)
T1 construct: expressed in transfected cells; host or cells: CHO cells (hFSHR clone 16)
T1 sequence (P23945 18-695): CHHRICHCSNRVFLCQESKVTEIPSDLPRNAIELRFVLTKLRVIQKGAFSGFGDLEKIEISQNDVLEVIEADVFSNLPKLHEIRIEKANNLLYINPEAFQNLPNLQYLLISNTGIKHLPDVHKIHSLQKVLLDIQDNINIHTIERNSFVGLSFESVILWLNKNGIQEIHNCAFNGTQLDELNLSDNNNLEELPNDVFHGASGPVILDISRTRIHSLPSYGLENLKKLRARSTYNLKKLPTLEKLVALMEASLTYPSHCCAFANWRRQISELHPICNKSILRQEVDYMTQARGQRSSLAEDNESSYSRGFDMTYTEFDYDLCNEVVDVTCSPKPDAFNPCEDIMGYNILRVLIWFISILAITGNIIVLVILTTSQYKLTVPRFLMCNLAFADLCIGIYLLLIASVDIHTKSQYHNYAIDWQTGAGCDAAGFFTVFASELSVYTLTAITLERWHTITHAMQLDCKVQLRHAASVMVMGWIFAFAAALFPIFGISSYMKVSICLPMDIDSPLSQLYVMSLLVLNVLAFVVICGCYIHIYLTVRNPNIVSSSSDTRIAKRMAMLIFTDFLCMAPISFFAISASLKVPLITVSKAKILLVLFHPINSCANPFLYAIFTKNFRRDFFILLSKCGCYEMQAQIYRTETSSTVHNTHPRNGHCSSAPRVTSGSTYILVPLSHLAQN
Description: (§1) HTRF Assay for Measuring cAMP in Cells
(§2) The method is based on a competitive immunoassay between native cAMP, which has been produced by the cells, and cAMP which is labelled with XL665. The tracer binding was visualized by a monoclonal antibody, anti-cAMP labelled with cryptate [HTRF=homogeneous time-resolved fluorescence].
(§3) The specific signal is inversely proportional to the cAMP concentration of the samples employed.
(§4) The 665 nm/620 nm fluorescence ratio was evaluated.
(§5) The following material was used: 96-well plates for the tissue culture, 96-well plates with black edge and black base (e.g. Fluotrac 600 from Greiner), 96-well plates for the substance dilutions of polypropylene and cAMP Femtomolar (4000 wells Kit, CIS Bio International # 62AM1PEC).
(§6) The following reagents were used: BSA (bovine serum albumin) Fraction V protease-free, IBMX (3-isobutyl-1-methylxanthine), hFSH (human follicle stimulating hormone), Triton X-100 analytical grade, potassium fluoride analytical grade, G 418 (Geneticin) and Accutase.
(§7) Buffer 1 (washing and testing buffer) contained PBS, 1 mM CaCl2, 1 mM MgCl2, 0.2% glucose; 0.1% BSA, 1 mM IBMX. Buffer 2 (2× lysis buffer) contained 1% Triton X-100 in PBS (without CaCl2 and MgCl2). Buffer 3 (assay buffer) contained 50 mM potassium phosphate buffer (pH 7.0); 800 mM potassium fluoride; 0.2% BSA (always added fresh).
(§8) On day 1, the cells were seeded in 96-well plates (3×10^4 cells per well hFSHR clone 16 cells (CHO cells stably transfected with the human FSH receptor in 150 μl of medium). The next day, test substance dilutions were made up. For this purpose, all the substances were diluted in ice-cold buffer 1 (with or without hFSH), and the substance dilutions were placed on ice until applied to the cells.
(§9) The cell supernatant was then aspirated off, and the cells were washed 2× with 200 μl of buffer 1. The cells were treated with 60 μl of the appropriate substance concentrations at 37° C. for 2 h. The cells were then lysed with 60 μl of buffer 2 (put onto the supernatant) (on a plate shaker at RT for 30 min).
(§10) The test conjugates (XL-665 and anti-cAMP cryptate) were diluted in buffer 3 in accordance with the manufacturers' information. The actual mixture for measurement was pipetted into a black 96-well plate (in each case 15 μl of the cell lysate diluted with 35 μl of buffer 1; firstly 25 μl of XL-665 conjugate were pipetted and, after 10 min, 25 μl of the anti-cAMP cryptate were added). This is followed by incubation at RT for 90 minutes. The measurement was carried out in a PheraStar (BMG).
(§11) Dose-effect curve (hFSH) for the human receptor: 1e-8, 3e-9, 1 e-9, 3e-10, 1e-10, 3e-11, 1e-11, 3e-12 mol/l.
(§12) The test substances were employed in suitable dilutions in the absence (test for agonism) and in the presence of 1e-9 mol/l hFSH.
(§13) The values of the well ratio were averaged and then entered directly in SigmaPlot versus the concentrations. The maximum and minimum values were determined for each plate, and half the difference is to be regarded as IC50.

human FSH receptor [2] = target: T1, human FSH receptor; experiment: HTRF assay for measuring cAMP in cells, test for antagonism (in the presence of hFSH); type: cell-based; settings: hFSHR clone 16 cells (CHO cells stably transfected with the human FSH receptor); in the presence of 1e-9 mol/l hFSH; 37° C. for 2 h; read-out: IC50 (FSH antagonistic effect in the HTRF assay)
Description: as §1, §2, §3, §4, §5, §6, §7, §8, §9, §10, §11, §12, §13

EC50 (human FSH receptor [1]) [µM]	IC50 (human FSH receptor [2]) [µM]	SMILES
> 10	0.15	COc1ccccc1C#Cc1ccc(OC(C)C)c(C(=O)N[C@@H](CCO)Cc2c[nH]c3ccccc23)c1 [Example 5, N-[(R)-3-Hydroxy-1-(1H-indol-3-ylmethyl)-propyl]-2-isopropoxy-5-(2-methoxy-phenylethynyl)-benzamide]
> 10	0.3	CCOc1ccc(-c2cccc(OC)c2)cc1C(=O)N[C@@H](CCO)Cc1c[nH]c2ccccc12 [Example 2, 4-Ethoxy-3′-methoxy-biphenyl-3-carboxylic acid [(R)-3-hydroxy-1-(1H-indol-3-ylmethyl)-propyl]-amide]
6	> 10	COc1ccc2nc(-c3cc(OC)c(OC)c(OC)c3)cc(C(=O)N[C@H](CCO)Cc3c[nH]c4ccccc34)c2c1 [Example 14, 6-Methoxy-2-(3,4,5-trimethoxy-phenyl)-quinoline-4-carboxylic acid [(S)-3-hydroxy-1-(1H-indol-3-yl-methyl)-propyl]-amide]
–	> 10	COc1ccc2nc(-c3cc(OC)c(OC)c(OC)c3)cc(C(=O)N[C@@H](CCO)Cc3csc4ccccc34)c2c1 [Example 9, 6-Methoxy-2-(3,4,5-trime-thoxy-phenyl)-quinoline-4-carboxylic acid ((R)-1-benzo-[b]thiophen-3-ylmethyl-3-hydroxy-propyl)-amide]
> 10	0.025	CNC(=O)c1ccc(-c2ccc(OC(C)C)c(C(=O)N[C@@H](CCO)Cc3c[nH]c4ccccc34)c2)cc1Cl [Example 3, 3′-Chloro-4-isopropoxy-biphenyl-3,4′-dicarboxylicacid 3-{[(R)-3-hydroxy-1-(1H-indol-3-ylmethyl)-propyl]-amide} 4′-methylamide]
7	> 10	COc1ccc2nc(-c3cc(OC)c(OC)c(OC)c3)cc(C(=O)N[C@@H](CCO)Cc3ccc4ccccc4c3)c2c1 [Example 8, 6-Methoxy-2-(3,4,5-trimethoxy-phenyl)-quinoline-4-carboxylic acid ((R)-3-hydroxy-1-naphthalen-2-ylmethyl-propyl)-amide]
5	> 10	COc1ccc2nc(-c3cc(OC)c(OC)c(OC)c3)cc(C(=O)N[C@@H](CCO)Cc3ccsc3)c2c1 [Example 12, 6-Methoxy-2-(3,4,5-trime-thoxy-phenyl)-quinoline-4-carboxylic acid ((R)-3-hydroxy-1-thiophen-3-yl-methyl-propyl)-amide]
8	> 10	COc1ccc2nc(-c3cc(OC)c(OC)c(OC)c3)cc(C(=O)N[C@H](CCO)Cc3ccccc3)c2c1 [Example 17, 6-Methoxy-2-(3,4,5-trime-thoxy-phenyl)-quinoline-4-carboxylic acid ((S)-1-benzyl-3-hydroxy-propyl)-amide]
